Series [1] relates to Cryptococcus neoformans. Nature of the series: In vitro antifungal activity, summary. The settings on record: relative to BU-3420T acetate. It counts as cell-based.
Series [2] has as its system Gram-positive aerobic bacteria. It counts as cell-based. The note with it: in words.
Series [3] is described as follows: Solubility. It counts as physicochemical.
Series [4] concerns Gram-negative organisms. It counts as cell-based. The settings on record: in words; relative to Gram-positive aerobic bacteria.
Series [5] concerns Moser cells. As to the kind of experiment: In vitro cytotoxicity, neutral red. Format: cell-based, human.
Series [6] concerns P388/VCR cells. Nature of the series: In vitro cytotoxicity, viable cell count. The settings on record: in words. As to the method: (§1) On the other hand, the cytotoxic activities against P388 and P388/VCR cells were determined by counting the number of viable cells.
Series [7] is described as follows: Acute toxicity in mice, intramuscular. Format: in vivo. The note with it: 5 mg/kg.
The subject of series [8] is Staphylococcus aureus Smith. As to the kind of experiment: In vivo activity against S. aureus Smith infection (ip) in mice. The note with it: im, single. As to the method: Mice were challenged intraperitoneally with 100 times the lethal dose of the pathogen in a 5% suspension of hog gastric mucin (American Laboratory, Omaha, Neb.). BU-3420T was administered to mice intramuscularly just before the bacterial challenge.

Series [9] concerns murine and human tumor cell lines. Nature of the series: In vitro cytotoxicity, summary. The note with it: in words. On the procedure: as §1

For `C[C@@H]1[C@H](O)[C@@H](C)/C=C/C=C/C=C/C=C/C=C/C=C/C=C/[C@H](O[C@@H]2O[C@H](C)[C@@H](O)[C@H](N)[C@@H]2O)C[C@@H]2O[C@](O)(C[C@@H](O)C[C@@H](O)[C@H](O)CC[C@@H](O)C[C@@H](O)CC(=O)O[C@H]1C)C[C@H](O)[C@H]2C(=O)O` [Amphotericin B], the “susceptibility of Cryptococcus neoformans” value in series [1] is reported as “more susceptible to amphotericin B”.
`COC1=C(C(=O)O)C(C)C23OC24c2cc(OC(C)=O)c5c(c2NC3C#C/C=C\C#CC14)C(=O)c1c(OC(C)=O)ccc(OC(C)=O)c1C5=O` (stereo not shown) [BU-3420T acetate]: the antibacterial activity entry in series [2] was “intensely potent activity”. Also, the solubility entry in series [3] (in organic solvents such as chloroform, methanol and ethanol, relative to BU-3420T) is recorded as “much improved solubility”. The “susceptibility of Gram-negative organisms” value in [4] is listed as “a little less susceptible”. This compound returned an IC50 in [5] (Homo sapiens, Moser, 72 hours) of 0.003 ng/mL.
For the compound `COC1=C(C(=O)O)C(C)C23OC24c2cc(O)c5c(c2NC3C#C/C=C\C#CC14)C(=O)c1c(O)ccc(O)c1C5=O` (stereo not shown) [BU-3420T], the “cytotoxicity against VCR-sensitive vs resistant P388 cells” value in series [6] is “same cytotoxicities”. Also, the toxicity entry in series [7] is given as “did not show any toxicity”. Further, the antibacterial activity entry in series [2] was “intensely potent activity”. In addition, the solubility entry was “slightly soluble” in [3] (in chloroform, ethyl acetate, methanol and ethanol); “soluble” in series [3] (in dimethyl sulfoxide, dimethylformamide and dioxane); “insoluble” in series [3] (in water and n-hexane). For the same compound, the “susceptibility of Gram-negative organisms” value in series [4] is “a little less susceptible”. Besides, the No. of survivor/tested in series [8] (0.01 mg/kg) and in [8] (0.04 mg/kg) was 0/5 each time. Besides, the cytotoxicity entry in series [9] is listed as “potent cytotoxicity”.
For the compound `CO[C@@]12[C@H](COC(N)=O)C3=C(C(=O)C(C)=C(N)C3=O)N1C[C@@H]1N[C@@H]12` [Mitomycin C], the “resistance of Moser and HCT-116 relative to B16-F10” value in series [5] (Moser and HCT-116 cells vs B16-F10) is on record as “slightly more resistant”.

One may read the IC50 as the point on the concentration scale where inhibition reaches its midpoint.

Values taken from patent US4952572A (priority 1989, dated 1990).
